Patent US8703701B2 (Indiana University Research and Technology Corporation, priority 2009, dated 2014)
Starred links: 1 amine or outer side, 2 acyl side, 3 side chain; linkers in the order of their positions; H or OH if unused. Non-standard residues stand in square brackets, D forms with d. Residues, ends and D or L forms follow the SMILES beside them. Groups on a side chain read outwards from the residue. No end group written: not given here. *: point of attachment. γGlu = O=C(O)[C@H](CCC(=O)[*:2])N[*:1]; Stearoyl = CCCCCCCCCCCCCCCCCC(=O)*; Palmitoyl = CCCCCCCCCCCCCCCC(=O)*; Myristoyl = CCCCCCCCCCCCCC(=O)*; Aib = CC(C)(N)C(=O)O

Legend:
glucagon receptor = target: T1, glucagon receptor (Homo sapiens, UniProt P47871); assay: cAMP induction, firefly luciferase reporter assay, glucagon receptor; type: cell-based; settings: for Activity at Glucagon Receptor % Relative Activity: compared to native glucagon
T1 construct: expressed in transfected cells; host or cells: HEK293
Description: (§1) The ability of each peptide to induce cAMP was measured in a firefly luciferase-based reporter assay.
(§2) At the end of the incubation, 100 μL of LucLite luminescence substrate reagent (Perkin Elmer, Wellesley, Mass.) were added to each well. The plate was shaken briefly, incubated 10 min in the dark and light output was measured on MicroBeta-1450 liquid scintillation counter (Perkin-Elmer, Wellesley, Mass.).

GLP-1 receptor = target: T2, GLP-1 receptor (Homo sapiens, UniProt P43220); assay: cAMP induction, firefly luciferase reporter assay, GLP-1 receptor; type: cell-based; settings: for Activity at GLP-1 Receptor % Relative Activity: compared to native GLP-1
T2 construct: expressed in transfected cells; host or cells: HEK293
Description: as §1, §2

[1] = Activity at Glucagon Receptor EC50 [pM], Table 3B

T1 sequence (P47871 26-477): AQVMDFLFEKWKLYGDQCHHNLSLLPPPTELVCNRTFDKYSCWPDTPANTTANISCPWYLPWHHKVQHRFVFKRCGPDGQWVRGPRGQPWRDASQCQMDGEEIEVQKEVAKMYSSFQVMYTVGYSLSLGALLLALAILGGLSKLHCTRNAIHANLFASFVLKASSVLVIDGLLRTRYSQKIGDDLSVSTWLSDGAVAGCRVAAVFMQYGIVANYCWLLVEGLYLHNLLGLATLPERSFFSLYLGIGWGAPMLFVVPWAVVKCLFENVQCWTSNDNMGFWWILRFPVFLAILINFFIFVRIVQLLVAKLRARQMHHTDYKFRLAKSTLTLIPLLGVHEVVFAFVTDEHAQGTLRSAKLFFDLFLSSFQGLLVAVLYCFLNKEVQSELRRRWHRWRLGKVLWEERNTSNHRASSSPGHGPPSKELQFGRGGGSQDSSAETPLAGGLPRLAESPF
T2 sequence (P43220 24-463): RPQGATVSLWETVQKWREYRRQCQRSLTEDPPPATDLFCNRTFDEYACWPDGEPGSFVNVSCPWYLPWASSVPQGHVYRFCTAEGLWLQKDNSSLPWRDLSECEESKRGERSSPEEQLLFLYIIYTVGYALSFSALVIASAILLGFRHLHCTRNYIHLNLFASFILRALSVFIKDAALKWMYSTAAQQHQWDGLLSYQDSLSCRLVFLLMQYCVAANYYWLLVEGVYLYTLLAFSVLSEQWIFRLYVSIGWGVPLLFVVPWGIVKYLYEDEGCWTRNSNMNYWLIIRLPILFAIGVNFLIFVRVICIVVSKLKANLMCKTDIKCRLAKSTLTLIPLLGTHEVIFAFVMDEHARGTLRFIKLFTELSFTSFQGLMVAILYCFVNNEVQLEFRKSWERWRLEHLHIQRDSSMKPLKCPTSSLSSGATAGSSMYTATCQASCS

CCCCCCCCCCCCCCCCCC(=O)N[C@@H](CCC(=O)N[C@@H](CCC(=O)NCCCC[C@H](NC(=O)[C@H](CC(=O)O)NC(=O)[C@H](CO)NC(=O)[C@@H](NC(=O)[C@H](Cc1ccccc1)NC(=O)[C@@H](NC(=O)CNC(=O)[C@H](CCC(N)=O)NC(=O)C(C)(C)NC(=O)[C@@H](N)Cc1c[nH]cn1)[C@@H](C)O)[C@@H](C)O)C(=O)N[C@@H](CO)C(=O)N[C@@H](CCCCN)C(=O)N[C@@H](Cc1ccc(O)cc1)C(=O)N[C@@H](CC(C)C)C(=O)N[C@@H](CC(=O)O)C(=O)NC(C)(C)C(=O)N[C@@H](CCCNC(=N)N)C(=O)N[C@@H](C)C(=O)N[C@@H](C)C(=O)N[C@@H](CCC(N)=O)C(=O)N[C@@H](CC(=O)O)C(=O)N[C@@H](Cc1ccccc1)C(=O)N[C@H](C(=O)N[C@@H](CCC(N)=O)C(=O)N[C@@H](Cc1c[nH]c2ccccc12)C(=O)N[C@@H](CC(C)C)C(=O)N[C@@H](CCSC)C(=O)N[C@@H](CC(=O)O)C(=O)N[C@H](C(N)=O)[C@@H](C)O)C(C)C)C(=O)O)C(=O)O [compound 71] (H-H[Aib]QGTFTSDK([γGlu-γGlu-Stearoyl])SKYLD[Aib]RAAQDFVQWLMDT-NH2; N-terminus assumed)
EC50 (glucagon receptor; [1]): 4 pM | Activity at Glucagon Receptor % Relative Activity (glucagon receptor; Table 3B): 975% | Activity at GLP-1 Receptor % Relative Activity (GLP-1 receptor; Table 3B): 1222%

CCCCCCCCCCCCCCCC(=O)N[C@@H](CCC(=O)NCCCC[C@H](NC(=O)[C@H](CC(=O)O)NC(=O)[C@H](CO)NC(=O)[C@@H](NC(=O)[C@H](Cc1ccccc1)NC(=O)[C@@H](NC(=O)CNC(=O)[C@H](CCC(N)=O)NC(=O)[C@@H](CO)NC(=O)[C@@H](N)Cc1c[nH]cn1)[C@@H](C)O)[C@@H](C)O)C(=O)N[C@@H](CO)C(=O)N[C@@H](CCCCN)C(=O)N[C@@H](Cc1ccc(O)cc1)C(=O)N[C@@H](CC(C)C)C(=O)N[C@@H](CC(=O)O)C(=O)NC(C)(C)C(=O)N[C@@H](CCCCN)C(=O)N[C@@H](CCCNC(=N)N)C(=O)N[C@@H](C)C(=O)N[C@@H](CCCCN)C(=O)N[C@@H](CCC(=O)O)C(=O)N[C@@H](Cc1ccccc1)C(=O)N[C@H](C(=O)N[C@@H](CS)C(=O)N[C@@H](Cc1c[nH]c2ccccc12)C(=O)N[C@@H](CC(C)C)C(=O)N[C@@H](CC(C)C)C(=O)N[C@@H](CC(=O)O)C(=O)N[C@H](C(N)=O)[C@@H](C)O)C(C)C)C(=O)O [compound 62] (H-H[dS]QGTFTSDK([γGlu-Palmitoyl])SKYLD[Aib]KRAKEFVCWLLDT-NH2; N-terminus assumed)
Activity at Glucagon Receptor % Relative Activity (glucagon receptor; Table 2B): 113% | Activity at GLP-1 Receptor % Relative Activity (GLP-1 receptor; Table 2B): 246%

CCCCCCCCCCCCCCCC(=O)N[C@@H](CCC(=O)N[C@@H](CCC(=O)NCCCC[C@H](NC(=O)[C@H](CC(=O)O)NC(=O)[C@H](CO)NC(=O)[C@@H](NC(=O)[C@H](Cc1ccccc1)NC(=O)[C@@H](NC(=O)CNC(=O)[C@H](CCC(N)=O)NC(=O)C(C)(C)NC(=O)[C@@H](N)Cc1c[nH]cn1)[C@@H](C)O)[C@@H](C)O)C(=O)N[C@@H](CO)C(=O)N[C@@H](CCCCN)C(=O)N[C@@H](Cc1ccc(O)cc1)C(=O)N[C@@H](CC(C)C)C(=O)N[C@@H](CC(=O)O)C(=O)NC(C)(C)C(=O)N[C@@H](CCCNC(=N)N)C(=O)N[C@@H](C)C(=O)N[C@@H](C)C(=O)N[C@@H](CCC(N)=O)C(=O)N[C@@H](CC(=O)O)C(=O)N[C@@H](Cc1ccccc1)C(=O)N[C@H](C(=O)N[C@@H](CCC(N)=O)C(=O)N[C@@H](Cc1c[nH]c2ccccc12)C(=O)N[C@@H](CC(C)C)C(=O)N[C@@H](CCSC)C(=O)N[C@@H](CC(=O)O)C(=O)N[C@H](C(N)=O)[C@@H](C)O)C(C)C)C(=O)O)C(=O)O [compound 42] (H-H[Aib]QGTFTSDK([γGlu-γGlu-Palmitoyl])SKYLD[Aib]RAAQDFVQWLMDT-NH2; N-terminus assumed)
Activity at Glucagon Receptor % Relative Activity (glucagon receptor; Table 3A): 863% | EC50 (GLP-1 receptor; Activity at GLP-1 Receptor EC50 [pM], Table 3A): 5 pM | Activity at GLP-1 Receptor % Relative Activity (GLP-1 receptor; Table 3A): 500%

CC(C)C[C@H](NC(=O)[C@H](Cc1c[nH]c2ccccc12)NC(=O)[C@H](CS)NC(=O)[C@@H](NC(=O)[C@H](Cc1ccccc1)NC(=O)[C@H](CCC(=O)O)NC(=O)[C@H](CCCCN)NC(=O)[C@H](C)NC(=O)[C@H](C)NC(=O)[C@H](CCCCN)NC(=O)C(C)(C)NC(=O)[C@H](CC(=O)O)NC(=O)[C@H](CC(C)C)NC(=O)[C@H](Cc1ccc(O)cc1)NC(=O)[C@H](CCCCN)NC(=O)[C@H](CO)NC(=O)[C@H](Cc1ccc(O)cc1)NC(=O)[C@H](CC(=O)O)NC(=O)[C@H](CO)NC(=O)[C@@H](NC(=O)[C@H](Cc1ccccc1)NC(=O)[C@@H](NC(=O)CNC(=O)[C@H](CCC(N)=O)NC(=O)C(C)(C)NC(=O)[C@@H](N)Cc1c[nH]cn1)[C@@H](C)O)[C@@H](C)O)C(C)C)C(=O)N[C@@H](CC(C)C)C(=O)N[C@@H](CC(=O)O)C(=O)N[C@H](C(N)=O)[C@@H](C)O [compound 64] (H-H[Aib]QGTFTSDYSKYLD[Aib]KAAKEFVCWLLDT-NH2; N-terminus assumed)
Activity at Glucagon Receptor % Relative Activity (glucagon receptor; Table 2B): 79% | EC50 (GLP-1 receptor; Activity at GLP-1 Receptor EC50 (nM), Table 2B): 12 pM | Activity at GLP-1 Receptor % Relative Activity (GLP-1 receptor; Table 2B): 308%

HSQGTFTSDYSKYLDERRAKEFVQWLMNT-NH2 [compound 68]
Activity at Glucagon Receptor % Relative Activity (glucagon receptor; Table 2B): 104% | Activity at GLP-1 Receptor % Relative Activity (GLP-1 receptor; Table 2B): 44%

CCCCCCCCCCCCCCCC(=O)N[C@@H](CCC(=O)N[C@@H](CCC(=O)NCCCC[C@H](NC(=O)[C@H](CC(=O)O)NC(=O)[C@H](CO)NC(=O)[C@@H](NC(=O)[C@H](Cc1ccccc1)NC(=O)[C@@H](NC(=O)CNC(=O)[C@H](CCC(N)=O)NC(=O)[C@@H](CO)NC(=O)[C@@H](N)Cc1c[nH]cn1)[C@@H](C)O)[C@@H](C)O)C(=O)N[C@@H](CO)C(=O)N[C@@H](CCCCN)C(=O)N[C@@H](Cc1ccc(O)cc1)C(=O)N[C@@H](CC(C)C)C(=O)N[C@@H](CC(=O)O)C(=O)NC(C)(C)C(=O)N[C@@H](CCCNC(=N)N)C(=O)N[C@@H](C)C(=O)N[C@@H](C)C(=O)N[C@@H](CCC(N)=O)C(=O)N[C@@H](CC(=O)O)C(=O)N[C@@H](Cc1ccccc1)C(=O)N[C@H](C(=O)N[C@@H](CCC(N)=O)C(=O)N[C@@H](Cc1c[nH]c2ccccc12)C(=O)N[C@@H](CC(C)C)C(=O)N[C@@H](CCSC)C(=O)N[C@@H](CC(=O)O)C(=O)N[C@H](C(N)=O)[C@@H](C)O)C(C)C)C(=O)O)C(=O)O [compound 44] (H-H[dS]QGTFTSDK([γGlu-γGlu-Palmitoyl])SKYLD[Aib]RAAQDFVQWLMDT-NH2; N-terminus assumed)
Activity at Glucagon Receptor % Relative Activity (glucagon receptor; Table 3A): 661% | Activity at GLP-1 Receptor % Relative Activity (GLP-1 receptor; Table 3A): 524%

CCCCCCCCCCCCCCCC(=O)N[C@@H](CCC(=O)NCCCC[C@H](NC(=O)[C@H](CC(=O)O)NC(=O)[C@H](CO)NC(=O)[C@@H](NC(=O)[C@H](Cc1ccccc1)NC(=O)[C@@H](NC(=O)CNC(=O)[C@H](CCC(N)=O)NC(=O)C(C)(C)NC(=O)[C@@H](N)Cc1c[nH]cn1)[C@@H](C)O)[C@@H](C)O)C(=O)N[C@@H](CO)C(=O)N[C@@H](CCCCN)C(=O)N[C@@H](Cc1ccc(O)cc1)C(=O)N[C@@H](CC(C)C)C(=O)N[C@@H](CC(=O)O)C(=O)N[C@@H](CCC(=O)O)C(=O)N[C@@H](CCCNC(=N)N)C(=O)N[C@@H](C)C(=O)N[C@@H](C)C(=O)N[C@@H](CCC(N)=O)C(=O)N[C@@H](CC(=O)O)C(=O)N[C@@H](Cc1ccccc1)C(=O)N[C@H](C(=O)N[C@@H](CS)C(=O)N[C@@H](Cc1c[nH]c2ccccc12)C(=O)N[C@@H](CC(C)C)C(=O)N[C@@H](CC(C)C)C(=O)N[C@@H](CC(=O)O)C(=O)N[C@H](C(N)=O)[C@@H](C)O)C(C)C)C(=O)O [compound 58]
Activity at Glucagon Receptor % Relative Activity (glucagon receptor; Table 6): 80% | EC50 (GLP-1 receptor; Activity at GLP-1 Receptor EC50 [nM], Table 6): 68 pM | Activity at GLP-1 Receptor % Relative Activity (GLP-1 receptor; Table 6): 125%

CSCC[C@H](NC(=O)[C@H](CC(C)C)NC(=O)[C@H](Cc1c[nH]c2ccccc12)NC(=O)[C@H](CCC(N)=O)NC(=O)[C@@H](NC(=O)[C@H](Cc1ccccc1)NC(=O)[C@H](CCC(=O)O)NC(=O)[C@H](CCCCN)NC(=O)[C@H](C)NC(=O)[C@H](CCCNC(=N)N)NC(=O)[C@H](CCCCN)NC(=O)[C@H](CCC(=O)O)NC(=O)[C@H](CC(=O)O)NC(=O)[C@H](CC(C)C)NC(=O)[C@H](Cc1ccc(O)cc1)NC(=O)[C@H](CCCCN)NC(=O)[C@H](CO)NC(=O)[C@H](Cc1ccc(O)cc1)NC(=O)[C@H](CC(=O)O)NC(=O)[C@H](CO)NC(=O)[C@@H](NC(=O)[C@H](Cc1ccccc1)NC(=O)[C@@H](NC(=O)CNC(=O)[C@H](CCC(N)=O)NC(=O)[C@@H](CO)NC(=O)[C@@H](N)Cc1c[nH]cn1)[C@@H](C)O)[C@@H](C)O)C(C)C)C(=O)N[C@@H](CC(N)=O)C(=O)N[C@H](C(N)=O)[C@@H](C)O [compound 20]
EC50 (glucagon receptor; Activity at Glucagon Receptor EC50 (nM), Table 2A): 54 pM | EC50 (GLP-1 receptor; Activity at GLP-1 Receptor EC50 (nM), Table 2A): 284 pM

CCCCCCCCCCCCCC(=O)N[C@@H](CCC(=O)N[C@@H](CCC(=O)NCCCC[C@H](NC(=O)[C@H](CC(=O)O)NC(=O)[C@H](CO)NC(=O)[C@@H](NC(=O)[C@H](Cc1ccccc1)NC(=O)[C@@H](NC(=O)CNC(=O)[C@H](CCC(N)=O)NC(=O)C(C)(C)NC(=O)[C@@H](N)Cc1c[nH]cn1)[C@@H](C)O)[C@@H](C)O)C(=O)N[C@@H](CO)C(=O)N[C@@H](CCCCN)C(=O)N[C@@H](Cc1ccc(O)cc1)C(=O)N[C@@H](CC(C)C)C(=O)N[C@@H](CC(=O)O)C(=O)NC(C)(C)C(=O)N[C@@H](CCCNC(=N)N)C(=O)N[C@@H](C)C(=O)N[C@@H](C)C(=O)N[C@@H](CCC(N)=O)C(=O)N[C@@H](CC(=O)O)C(=O)N[C@@H](Cc1ccccc1)C(=O)N[C@H](C(=O)N[C@@H](CCC(N)=O)C(=O)N[C@@H](Cc1c[nH]c2ccccc12)C(=O)N[C@@H](CC(C)C)C(=O)N[C@@H](CCSC)C(=O)N[C@@H](CC(=O)O)C(=O)N[C@H](C(N)=O)[C@@H](C)O)C(C)C)C(=O)O)C(=O)O [compound 70] (H-H[Aib]QGTFTSDK([γGlu-γGlu-Myristoyl])SKYLD[Aib]RAAQDFVQWLMDT-NH2; N-terminus assumed)
EC50 (glucagon receptor; [1]): 6 pM | Activity at Glucagon Receptor % Relative Activity (glucagon receptor; Table 3B): 709% | EC50 (GLP-1 receptor; Activity at GLP-1 Receptor EC50 [pM], Table 3B): 4 pM | Activity at GLP-1 Receptor % Relative Activity (GLP-1 receptor; Table 3B): 500%
